Assay results reported in PMC5025758 (Nature Communications, 2016).

Legend:
KasA [1] = molecular target: T1, KasA (Mycobacterium tuberculosis, UniProt P9WQD9); format: cell-based
KasA [2] = molecular target: T1, KasA; format: biochemical
crystal structure = molecular target: the molecule itself; assay: crystal structure

T1 sequence (P9WQD9 whole entry): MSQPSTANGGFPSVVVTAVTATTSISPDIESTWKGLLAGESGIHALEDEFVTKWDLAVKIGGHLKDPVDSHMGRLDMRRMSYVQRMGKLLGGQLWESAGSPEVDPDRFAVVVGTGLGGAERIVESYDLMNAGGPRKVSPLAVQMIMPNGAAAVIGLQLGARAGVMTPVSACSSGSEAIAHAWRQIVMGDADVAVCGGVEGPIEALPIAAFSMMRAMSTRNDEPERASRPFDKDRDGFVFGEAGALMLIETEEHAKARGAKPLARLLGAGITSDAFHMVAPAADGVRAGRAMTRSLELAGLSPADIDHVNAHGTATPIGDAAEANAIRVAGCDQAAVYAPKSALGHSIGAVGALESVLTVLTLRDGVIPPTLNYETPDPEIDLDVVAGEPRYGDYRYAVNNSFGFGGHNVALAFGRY

CCCCS(=O)(=O)Nc1ccc2cnn(CCCN)c2c1 [compound 1, tagged analogue (1)]
bead-immobilized probe captures KasA from M. bovis BCG extract, competed by free (KasA [1]): only three proteins were efficiently competed off the beads by excess GSK3011724A: KasA

CCCCS(=O)(=O)N(C)c1ccc2cnn(C)c2c1 [compound 2, inactive analogue 2]
Kd (KasA [2]): 4.5 µM

B1: β-ketoacyl synthase KasA (Mycobacterium tuberculosis) (enzyme)
chain: SQPSTANGGFPSVVVTAVTATTSISPDIESTWKGLLAGESGIHALEDEFVTKWDLAVKIGGHLKDPVDSHMGRLDMRRMSYVQRMGKLLGGQLWESAGSPEVDPDRFAVVVGTGLGGAERIVESYDLMNAGGPRKVSPLAVQMIMPNGAAAVIGLQLGARAGVMTPVSACSSGSEAIAHAWRQIVMGDADVAVCGGVEGPIEALPIAAFSMMRAMSTRNDEPERASRPFDKDRDGFVFGEAGALMLIETEEHAKARGAKPLARLLGAGITSDAFHMVAPAADGVRAGRAMTRSLELAGLSPADIDHVNAHGTATPIGDAAEANAIRVAGCDQAAVYAPKSALGHSIGAVGALESVLTVLTLRDGVIPPTLNYETPDPEIDLDVVAGEPRYGDYRYAVNNSFGFGGHNVALAFGRY
notes: also called Rv2245
stoichiometry N (crystal structure): 2
